{
  "source": "patent US20040260318A1",
  "about": "“Anastomotic connector devices” (Angiotech International AG, priority 2003, published 2004)",
  "key": {"[1]": {"test_system": "AP-1 transcriptional activity", "assay": "IL-1 stimulated AP-1 driven CAT reporter gene activity in chondrocytes", "type": "cell-based", "conditions": "transfected chondrocytes, concentration dependent, 10^−7 to 10^−5 M", "excerpt": "The results shown are representative of three independent experiments."}, "[2]": {"test_system": "AP-1 DNA binding activity", "assay": "IL-1 induced AP-1 DNA binding activity, gel mobility shift assay", "type": "cell-based", "conditions": "chondrocyte lysates, pretreated at 10^−7 to 10^−5 M for 24 hours", "description": "Binding activity was assayed with a radiolabeled human AP-1 sequence probe and gel mobility shift assay. Extracts from chondrocytes untreated or treated with various amounts of paclitaxel (10^−7 to 10^−5 M) followed by IL-1β (20 ng/ml) were incubated with excess probe on ice for 30 minutes, followed by non-denaturing gel electrophoresis. The “com” lane contains excess unlabeled AP-1 oligonucleotide."}, "[3]": {"test_system": "Primary human smooth muscle cells", "assay": "Screening assay for smooth muscle cell migration (Boyden chamber, rhPDGF-BB chemotaxis)", "type": "cell-based", "conditions": "4 hours migration toward rhPDGF-BB 10 ng/mL, FIG. 8", "description": "Primary human smooth muscle cells are starved of serum in smooth muscle cell basal media containing insulin and human basic fibroblast growth factor (bFGF) for 16 hours prior to the assay. […] A 100 μL volume of smooth muscle cells (approximately 20,000-25,000 cells) is added to the top of a Boyden chamber assembly (Chemicon QCM Chemotaxis 96-well migration plate). To the bottom wells, the chemotactic agent, recombinant human platelet derived growth factor (rhPDGF-BB) is added at a concentration of 10 ng/mL in a total volume of 150 μL. Paclitaxel is prepared in DMSO at a concentration of 10^−2 M and serially diluted 10-fold to give a range of stock concentrations (10^−8 M to 10^−2 M). Paclitaxel is added to cells by directly adding paclitaxel DMSO stock solutions, prepared earlier, at a 1/1000 dilution, to the cells in the top chamber. […]\nAt the end of the 4 hour period, cells in the top chamber are discarded and the smooth muscle cells attached to the underside of the filter are detached for 30 minutes at 37° C. in Cell Detachment Solution (Chemicon). […] Relative fluorescence units from triplicate wells are averaged after subtracting background fluorescence (control chamber without chemoattractant) and average number of cells migrating is obtained from a standard curve of smooth muscle cells serially diluted from 25,000 cells/well down to 98 cells/well."}, "stromelysin (MMP-3) mRNA": {"test_system": "stromelysin (MMP-3) mRNA", "assay": "IL-1 induced MMP-3 (stromelysin) mRNA expression in chondrocytes, Northern blot"}, "Solubility in water": {"assay": "Solubility in water", "type": "physicochemical"}, "[4]": {"test_system": "Chick Chorioallantoic Membrane", "assay": "Chick chorioallantoic membrane (CAM) angiogenesis assay", "conditions": "for Inhibition/n: 48 hours"}, "collagenase (MMP-1) mRNA": {"test_system": "collagenase (MMP-1) mRNA", "assay": "IL-1 induced MMP-1 (collagenase) mRNA expression in chondrocytes, Northern blot"}, "[5]": {"conditions": "chondrocytes pretreated for 24 hours, IL-1 induced"}},
  "data": [
    {"smiles": "CC(=O)O[C@H]1C(=O)[C@@]2(C)[C@H]([C@H](OC(=O)c3ccccc3)[C@]3(O)C[C@H](OC(=O)[C@H](O)[C@@H](NC(=O)c4ccccc4)c4ccccc4)C(C)=C1C3(C)C)[C@]1(OC(C)=O)CO[C@@H]1C[C@@H]2O", "note": "[paclitaxel, 5β,20-Epoxy-1,2Alpha,4,7β,10β,13Alpha-hexahydroxytax-11-en-9-one-4,10-diacetate-2-benzoate-13-(Alpha-phenylhippurate)]", "values": [
      {"measurement": "IL-1 induced AP-1 reporter gene CAT activity", "setting": "[1]", "result": "reduced"},
      {"measurement": "IL-1 induced AP-1 binding activity to DNA", "setting": "[2]", "result": "decreased"},
      {"measurement": "IC50", "setting": "[3]", "result": 760, "unit": "pM"},
      {"measurement": "concentration inhibiting stromelysin expression in vitro", "setting": "stromelysin (MMP-3) mRNA", "result": "10^−6 M"},
      {"measurement": "inhibition of stromelysin mRNA expression", "setting": "stromelysin (MMP-3) mRNA; at 10^−5 M", "result": "complete inhibition"},
      {"measurement": "levels of stromelysin mRNA", "setting": "stromelysin (MMP-3) mRNA; [5]", "result": "significantly reduced"},
      {"measurement": "solubility in water", "setting": "Solubility in water", "result": "insoluble in water"},
      {"measurement": "Inhibition/n", "setting": "[4]; 0.25 ug in methylcellulose (10 ul) disk, CAMs with positive antiangiogenesis response / n", "result": "2/11"},
      {"measurement": "Inhibition/n", "setting": "[4]; 0.5 ug in methylcellulose (10 ul) disk", "result": "6/11"},
      {"measurement": "Inhibition/n", "setting": "[4]; 1 ug in methylcellulose (10 ul) disk", "result": "6/15"},
      {"measurement": "Inhibition/n", "setting": "[4]; 5 ug in methylcellulose (10 ul) disk", "result": "20/27"},
      {"measurement": "Inhibition/n", "setting": "[4]; 10 ug in methylcellulose (10 ul) disk", "result": "16/21"},
      {"measurement": "Inhibition/n", "setting": "[4]; 30 ug in methylcellulose (10 ul) disk", "result": "31/31"},
      {"measurement": "angiogenesis in the CAM", "setting": "[4]; 48 hours after application", "result": "inhibited"},
      {"measurement": "avascular gradient scale, maximal avascular zone", "setting": "[4]; within 48 hours, depending on concentration", "result": 3},
      {"measurement": "concentration inhibiting collagenase expression in vitro", "setting": "collagenase (MMP-1) mRNA", "result": "10^−6 M"},
      {"measurement": "inhibition of collagenase mRNA expression", "setting": "collagenase (MMP-1) mRNA; at 10^−5 M", "result": "complete inhibition"},
      {"measurement": "levels of collagenase mRNA", "setting": "collagenase (MMP-1) mRNA; [5]", "result": "significantly reduced"}
    ]}
  ]
}
